Measured values: US20050070594A1, “Use of angiotensin II receptor antagonists” (Boehringer Ingelheim International GmbH, priority 2003, published 2005)
Where a name gives a salt, the structure may show the parent alone.

What was measured:
[1] = biological target: T1, human PPARgamma-ligand binding domain (LBD) (Homo sapiens, UniProt P37231); assay: AlphaScreen: recruiting of biotinylated LXXLL peptide of cofactor CBP to GST-PPARgamma-LBD; format: biochemical; details: concentrations of up to 50 μM
T1 construct: codes for the amino acids 205-505 of the human PPARgamma2 transcription factor; made in house; host or cells: E. coli BL21(DE3), vector pGEX-4T-1
T1 sequence (P37231 205-505): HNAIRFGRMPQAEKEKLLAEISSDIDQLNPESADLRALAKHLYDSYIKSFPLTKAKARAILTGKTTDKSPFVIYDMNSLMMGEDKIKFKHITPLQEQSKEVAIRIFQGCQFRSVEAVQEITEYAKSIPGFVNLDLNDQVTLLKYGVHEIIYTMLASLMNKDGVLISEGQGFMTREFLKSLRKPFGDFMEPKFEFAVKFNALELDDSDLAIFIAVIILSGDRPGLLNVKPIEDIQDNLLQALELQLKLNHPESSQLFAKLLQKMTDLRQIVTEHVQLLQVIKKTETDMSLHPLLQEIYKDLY
Description: Protein containing the human PPARgamma-ligand binding domain (LBD) is prepared as a GST fusion protein in E.coli and purified by affinity chromatography. […] The fusion protein is expressed in the E.coli strain BL21(DE3) recommended for pGEX vectors after induction with 0.2 mM IPTG for 4 hours at 25° C. The bacteria are pelleted after the induction and frozen in batches in PBS, pH 7.4. After opening up in a French Press, the dissolved GST-PPARgamma-LBD-fusion protein is purified using a GSTrap column (Pharmacia). Elution is carried out by the addition of 20 mM reduced glutathione.
The GST-PPARgamma-LBD-protein fractions are desalinated using a HiTrap desalting column (Pharmacia) and the protein concentration is determined using a standard assay.
The assay buffer consists of 25 mM Hepes pH7.4, 100 mM NaCl,1 mM DTT, 0.1% Tween-20, 0.1% BSA. […] The final DMSO concentration in the assay is 1% (v/v). A 1% DMSO solution is used as the background control (NSB). The measurement is done using a Packard fusion measuring device.

[2] = biological target: T2, ligand binding domain of the human PPARgamma2 transcription factor (Gal4 DNA binding domain fusion) (Homo sapiens, UniProt P37231); assay: Luciferase activity in stably transformed PPARgamma reporter cell line (CHO-K1 clone 11); format: cell-based; details: 24 hours
T2 construct: codes for amino acids 205-505 of the human PPARgamma2 transcription factor; expressed in transfected cells
T2 sequence (P37231 205-505): T1 sequence (P37231 205-505)
Description: The resulting plasmid pFA-CMV/hPPARgamma2-LBD codes N-terminally of the PPARgamma-LBD in the same reading frame for a Gal4 DNA binding domain. In addition the plasmid codes for a neomycin resistance.
The cell line CHO-K1 (ATCC CCL-61) is cotransfected with the plasmids pFA-CMV/hPPARgamma2-LBD and pFR-Luc (Stratagene). pFR-Luc codes for the luciferase gene under the control of a five-times repeated yeast Gal4 binding site. The transfection is carried out with lipofectamine2000 in accordance with the manufacturer's instructions.
After six days' cultivation the cells are passaged and kept in culture for another 10 days. The resulting neomycin-resistant colonies are picked out under the microscope and transferred into 96 well-dishes and cultured.
The test substances are brought to 100 times the desired concentration with a suitable solvent, e.g. DMSO, and diluted 1:100 with the medium placed in the cell culture plate. The solvent used, e.g. DMSO, is used as the background control in the same concentration.
Luminescence is measured after a five minute wait using a Packard TopCount NXT. The luciferase activity is obtained by integrating the relative luciferase units (RLU) of the first ten seconds after the start of measurement.

[3] = animal model; cited from earlier work
[4] = biological target: T3, human PPARgamma-ligand binding domain (LBD) (Homo sapiens, UniProt P37231); assay: SPA assay: displacement of 3H-labelled rosiglitazone from GST-PPARgamma-LBD; details: NSB 217, Bmax 911
T3 sequence (P37231 205-505): T1 sequence (P37231 205-505)
T3 sequence (P19793 220-461 partner limits assumed): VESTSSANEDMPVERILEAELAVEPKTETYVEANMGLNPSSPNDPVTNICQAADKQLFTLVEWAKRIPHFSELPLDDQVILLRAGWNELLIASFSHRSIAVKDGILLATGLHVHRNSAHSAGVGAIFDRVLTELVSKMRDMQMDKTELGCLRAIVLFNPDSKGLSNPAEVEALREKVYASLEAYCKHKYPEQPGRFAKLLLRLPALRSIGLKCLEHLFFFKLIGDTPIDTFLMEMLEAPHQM
Description: Protein containing the human PPARgamma-ligand binding domain (LBD) is prepared as a GST fusion protein in E.coli and purified by affinity chromatography. To do this, a DNA section which codes for the amino acids 205-505 of the human PPARgamma2 transcription factor (cf. Genbank entry U79012) is subcloned via the additionally introduced restriction cutting sites BamH I and Xho I into the expression vector pGEX-4T-1 (Amersham) and the sequence of the section is monitored. […] The bacteria are pelleted after the induction and frozen in batches in PBS, pH 7.4. After opening up in a French Press, the dissolved GST-PPARgamma-LBD-fusion protein is purified using a GSTrap column (Pharmacia). Elution is carried out by the addition of 20 mM reduced glutathione. The GST-PPARgamma-LBD-protein fractions are desalinated using a HiTrap desalting column (Pharmacia) and the protein concentration is determined using a standard assay. Protein containing the human RXRalpha ligand binding domain (LBD) is prepared as a His tag fusion protein in E.coli and purified by affinity chromatography. To do this a DNA section which codes for the amino acids 220-461 of the human RXRalpha transcription factor (cf. Genbank entry NM_002957, nt 729-1457) is subcloned via the additionally introduced restriction cutting sites BamH I and Not I into the expression vector pET28c (Novagen) and the sequence of the section is monitored. […] The bacteria are pelleted after the expression and frozen in batches in PBS, pH 7.4. After opening up in a French Press, the dissolved His-RXRalpha-LBD-fusion protein is purified using a HiTrap chelating column (Pharmacia). Elution is carried out using a 500 mM imidazole step. The His-RXRalpha-LBD protein fractions are desalinated using a HiTrap desalting column (Pharmacia) and the protein concentration is determined using a standard assay. A description of the SPA assay format can be found in Mukheriee R et al., J Steroid Biochem Mol Biol (2002) 81:217-225.

[5] = test system: Adipose Protein 2 (aP2) expression; assay: Stimulation of aP2 expression in 3T3-L1 cells (real time PCR); format: cell-based, mouse; details: 10 μmol/L
Text: 3T3-L1 mouse preadipocytes are cultivated in DMEM (Dulbecco's modified eagle medium) with 10% foetal calf serum (FBS). PC12W cells are cultivated in DMEM with 5% FBS and 10% equine serum. In both cases the media contain 1% penicillin/streptomycin.
The differentiation of adipocytes is induced 2-3 days after cell confluence by adding a differentiating solution. This contains • 1 μmol/L of dexamethasone, • 0.5 mmol/L of 3-isobutyl-1-methylxanthine, • 1.67 μmol/L of insulin, and • 10% FBS.
Then the cells are stimulated for another 48 hours before finally being analysed (day 4).
RNA isolation, reverse transcription and quantification of gene expression are carried out using an ABI 7000 sequence detection system-for real time PCR (described in Janke et al, Diabetes 51:1699-707, 2002). The endogenous control used for the real time PCR consists of the household genes 18S rRNA and hypoxanthine guanine phosphoribosyl transferase (hprt).

[6] = Dissolution of active substances from tablets; format: physicochemical; details: 900 ml 0.1 M phosphate buffer pH 7.5, 75 rpm

Row | Compound | direct activation of the PPARgamma-LBD / recruiting of the LXXLL peptide [1] | luciferase activity (MW) ([2]; 1.00E−04 M) [RLU] | luciferase activity (MW) ([2]; 1.00E−05 M) [RLU] | luciferase activity (MW) ([2]; 1.00E−06 M) [RLU] | luciferase activity (MW) ([2]; 3.00E−05 M) [RLU] | luciferase activity (MW) ([2]; 3.00E−06 M) [RLU] | luciferase activity (MW) ([2]; 3.00E−07 M) [RLU] | insulin sensitivity [3] | SPA signal, bound 3H-rosiglitazone (MW) ([4]; 1.00E−04 M test substance) | SPA signal, bound 3H-rosiglitazone (MW) ([4]; 1.00E−05 M test substance) | SPA signal, bound 3H-rosiglitazone (MW) ([4]; 1.00E−06 M test substance) | SPA signal, bound 3H-rosiglitazone (MW) ([4]; 1.00E−07 M test substance) | SPA signal, bound 3H-rosiglitazone (MW) ([4]; 3.00E−05 M test substance) | SPA signal, bound 3H-rosiglitazone (MW) ([4]; 3.00E−06 M test substance) | SPA signal, bound 3H-rosiglitazone (MW) ([4]; 3.00E−07 M test substance) | stimulation of aP2 expression, factor [5] | dissolved after 30 minutes ([6]; first batch) [%] | dissolved after 30 minutes ([6]; second batch) [%] | dissolved after 30 minutes ([6]; third batch) [%]
1 | CCCCC1=NC2(CCCC2)C(=O)N1Cc1ccc(-c2ccccc2-c2nnn[nH]2)cc1 [irbesartan] | does not result in any direct activation | 29600 | 3292 | 657 | 22133 | 1028 | 491 | Improvement to the insulin sensitivity | 510 | 723 | 815 | 913 | 648 | 779 | 810 | – | – | – | –
2 | CCCCc1nc(Cl)c(CO)n1Cc1ccc(-c2ccccc2-c2nn[nH]n2)cc1 [losartan] | does not result in any direct activation | 11322 | 709 | 589 | 3271 | 672 | 874 | – | 611 | 787 | 901 | 915 | 784 | 814 | 835 | – | – | – | –
3 | CCc1ccc(CCOc2ccc(CC3SC(=O)NC3=O)cc2)nc1 (stereo not drawn) [pioglitazone] | – | – | – | – | – | – | – | – | – | – | – | – | – | – | – | 4.5±1 | – | – | –
4 | CCCc1nc2c(C)cc(-c3nc4ccccc4n3C)cc2n1Cc1ccc(-c2ccccc2C(=O)O)cc1 [telmisartan sodium salt] | – | – | – | – | – | – | – | – | – | – | – | – | – | – | – | – | 92±1.5 | 96±1.8 | 100±1.0
